In patent US11226337B2, “Chemoproteomic profiling of protein electrophilic and oxidative post-translational modifications” (Zenagem, LLC, priority 2017, dated 2022):

What was measured:
[1] = tested on: Uncharacterized protein (H7C469); test: SILAC RP-ABPP; type: cell-based, human; details: SILAC H/L
Description: For MS-based experiments, labelling was performed in a similar manner as described above in Example 2, maintaining the same concentrations of probes. Modifications to this protocol included using isotopically ‘light’ and ‘heavy’ SILAC cells that were also grown to near complete confluence prior to treatment. Isotopically light cells were treated with the non-clickable hydrazine probe (at the same concentration as the probe in ‘enrichment’ experiments) or the probe in the presence of 10-fold excess non-clickable hydrazine probe as a competitor (in ‘competition’ experiments). Isotopically heavy cells were treated with the probe for both types of experiments. These treatments were performed in non-SILAC media. Following treatments, cells were washed with cold PBS to remove the probe-containing media, harvested by scraping, collected by centrifugation (1,400 g, 3 min, 4° C.), washed again by resuspension in cold PBS and frozen as pellets at −80° C. until use. […]
Heavy and light parent ion chromatograms associated with successfully identified peptides were extracted and compared using CIMAGE software as previously described^69. […] To ensure that the correct pair of peaks is quantified, chromatograms are extracted within a 10 ppm error tolerance of the predicted m/z, the signal-to-noise ratio must be >2.5 and the ‘co-elution correlation score’ and ‘envelope correlation score’ must have R^2 values ≥0.8. In addition, peptides detected as ‘singletons,’ where only the heavy ion of a peptide pair was identified, but for which passed all other filtering parameters, are given a default assigned ratio of ‘20,’ which is defined as any measured ratio that is ≥20.
To further eliminate false positives and any stochastic variability in the data, protein ratios were then determined by the median peptide ratio derived from three or more unique quantified peptides. […] Most importantly, there are no robustly measured ratios for proteins identified as probe 1 targets that had measured ratios of ˜1 with probe 2. […]

[2] = tested on: HEK293T cells; test: gel-based in situ probe labelling (rhodamine-azide, in-gel fluorescence); type: cell-based, human; details: soluble and membrane proteomes, 30 minutes
Description: For gel-based experiments, cells were plated and grown to near complete confluence at the time of treatment. Cells were washed with cold phosphate buffered saline (PBS, pH 7.4) and replenished with serum-free DMEM (˜15% of normal passage volume, e.g. a 10 cm plate normally passaged with 10 mL media received 1.5 mL) supplemented with 10 mM Na-HEPES buffer (pH 7.5). Unless otherwise indicated, cells were incubated with probes (3 mM and 1 mM for probes 1 and 2, respectively) in the absence or presence of 10-fold excess non-clickable competitor probes (30 mM and 10 mM for 3 and 4, respectively) for 0.5 hour at 37° C. When applicable, probe and competitor were premixed before co-administering to the cells.
The cells were lysed, and the cell proteomes were conjugated to a rhodamine-azide (Rh—N3) reporter tag.
Soluble proteomes from treated cells were diluted to 1 mg/mL. To each sample (50 μL), a freshly prepared “click” or CuAAC reagent mixture (6 μL) containing 0.1 mM tris(benzyltriazolylmethyl)amine (TBTA) (3 μL/sample, 1.7 mM in 4:1 DMSO:t-BuOH), 1 mM CuSO4 (1 μL/sample, 50 mM in H2O), 25 μM azide-rhodamine (1 μL/sample, 1.25 mM in DMSO), and freshly prepared 1 mM tris(2-carboxyethyl)phosphine (TCEP) (1 μL/sample, 50 mM in PBS or H2O) was added to conjugate the fluorophore to probe-labelled proteins. TBTA was purchased from TCI and azide-rhodamine was synthesized as previously described^64. Upon addition of the click mixture, each reaction was immediately mixed by vortexing and then allowed to react at ambient temperature for 1 hour before quenching the reactions with SDS loading buffer (4× stock, 17 μL). Proteins (˜25 μg total protein loaded per gel lane) were resolved by SDS-PAGE (10% acrylamide) and visualized by in-gel fluorescence scanning on a Hitachi FMBIO-II or BioRad ChemiDoc MP flatbed fluorescence scanner.

Structure (SMILES) | competition ratioavg ([1]; probe 1 vs probe 1+10x probe 3, cell line not given) | protein labeling, in-gel fluorescence ([2]; hydrochloride) | enrichment ratioavg ([1]; probe 2 1 mM 0.5 h vs probe 4, MDA-MB-231) | competition ratioavg ([1]; probe 2 vs probe 2+10x probe 4, MDA-MB-231) | protein labeling, in-gel fluorescence [2]
C#CCNN.Cl [probe 1, prop-2-yn-1-ylhydrazine hydrochloride] | 2 | Concentration-dependent protein labeling | – | – | –
C#CCCNC(=O)c1ccc(NN)cc1.Cl [probe 2, N-(but-3-yn-1-yl)-4-hydrazinylbenzamide hydrochloride] | – | – | 14 | 5 | Concentration-dependent protein labeling
